Test systems include CAKI-1 renal; KM12 colon; SNB-19 CNS; NCI-H226 lung; NCI-H460 lung; A549 NSCLC; HCT-15 colon; K-562 leukemia.
Assay in all cases: DTP human tumour cell line panel, 48 h

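Cultured in 96-well plates, cells were exposed to test compound for 48 hours across five concentrations. GI50 = concentration required for 50% inhibition of growth. TGI denotes the concentration required for complete inhibition of growth.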 A value given as a limit tells only on which side of the number the result lay.

Turning to `Cc1cc(Cl)ccc1NC(=O)C(=O)Cc1nc2ccc(C(=O)c3ccccc3)cc2[nH]c1=O`, the TGI with CAKI-1 renal, in the test on KM12 colon, with SNB-19 CNS, in the test with NCI-H226 lung, with NCI-H460 lung and with A549 NSCLC was above 100 µM each time. The TGI in the test with HCT-15 colon was above 100 µM.

As to `C/C(=N/N(C=O)C[n+]1ccccc1)C(CN(CC(C)C)CC(C)C)C(=O)Nc1ccc(C)cc1C` (configuration not stated), the TGI with CAKI-1 renal, in the test with K-562 leukemia, with KM12 colon, in the test on SNB-19 CNS, in the test with NCI-H460 lung and in the test with A549 NSCLC was above 100 µM in each case.

Turning to `Nc1nc2c(ncn2Cc2ccccc2CCO)c(=O)[nH]1`, the TGI in the test with CAKI-1 renal, with K-562 leukemia, in the test on KM12 colon, with SNB-19 CNS, with NCI-H226 lung and in the test with NCI-H460 lung was above 100 µM in each case. Besides, the TGI with A549 NSCLC and with HCT-15 colon was above 100 µM in each case.

With `COc1cc2nncc(Sc3cnnc4ccccc34)c2cc1OC`, the TGI in the test with CAKI-1 renal is above 100 µM; in the test with K-562 leukemia it was above 100 µM; in the test with KM12 colon, 56.5 µM; in the test with SNB-19 CNS it was 42.3 µM; with NCI-H226 lung it was 67.3 µM; with NCI-H460 lung it was 50.4 µM. Also, the TGI came out at 71.9 µM in the test with A549 NSCLC and 72.2 µM in the test on HCT-15 colon.

For `CC12CC3(C)CC(C)(C1)CC(N=[N+]=[N-])(C2)C3`, the TGI in the test with CAKI-1 renal, with K-562 leukemia, in the test on KM12 colon, in the test on SNB-19 CNS, in the test on NCI-H226 lung and with NCI-H460 lung was above 100 µM in each case. In the test on A549 NSCLC, this compound showed a TGI above 100 µM.

Regarding `COc1ccc(C2C(Cl)C(=O)N2n2cnc3ccccc3c2=O)cc1OC` (configuration not stated), the TGI in the test with CAKI-1 renal, in the test with K-562 leukemia, with KM12 colon, in the test with SNB-19 CNS, with NCI-H226 lung and in the test on NCI-H460 lung was above 100 µM each time. Besides, the TGI in the test with A549 NSCLC and in the test with HCT-15 colon was above 100 µM throughout.

In the case of `C=C(C)C1CC2C(C)=C(OC(C)=O)C1n1c(=O)c3cc4ccccc4cc3c(=O)n12` (configuration not stated), the TGI in the test with CAKI-1 renal, with K-562 leukemia, with KM12 colon, with SNB-19 CNS, in the test with NCI-H226 lung and in the test with NCI-H460 lung was above 100 µM each time. The TGI in the test with A549 NSCLC and in the test on HCT-15 colon was above 100 µM in each case.

For the compound `CSc1nc2c(c(O)c(C)c(=O)n2C2OC(COC(C)=O)C(OC(C)=O)C(OC(C)=O)C2OC(C)=O)c(=O)n1C` (configuration not stated), the TGI in the test with CAKI-1 renal, with K-562 leukemia, with KM12 colon, with SNB-19 CNS, in the test with NCI-H226 lung and in the test on NCI-H460 lung was above 100 µM in each case. In addition, the TGI in the test on A549 NSCLC and with HCT-15 colon was above 100 µM each time.

On to `CC1(C)C(=O)C(O)=CC2C1=CCC1C2(C)C(=O)CC2(C)C(C(C)(O)C(=O)CC(O)C(C)(C)O)C(O)CC12C` (configuration not stated), for which the TGI with CAKI-1 renal was 5.1 µM; with K-562 leukemia, above 80.2 µM; with KM12 colon, above 100 µM; with SNB-19 CNS it was 12.7 µM; in the test on NCI-H226 lung, 7.31 µM; in the test with NCI-H460 lung it was 56.5 µM. The TGI in the test with A549 NSCLC is above 74.1 µM; with HCT-15 colon, above 88.7 µM.

Turning to `Cc1cc([N+](=O)[O-])c(C)c2c1[nH]c1ccc(/C(CCC3CCCC3)=N\N)cc12`, the TGI with K-562 leukemia is 55.2 µM; with KM12 colon, 34.9 µM; in the test on SNB-19 CNS, 35.7 µM; in the test on NCI-H226 lung, 41.5 µM; in the test on NCI-H460 lung it was above 100 µM; in the test on A549 NSCLC, 34.2 µM. Moreover, in the test with HCT-15 colon, the total growth inhibition concentration (TGI) stood at 29.2 µM.

In the case of `CC[O-].CC[O-].O=C1C(=C([O-])c2ccccc2)C(=O)c2ccccc21.O=C1C(=C([O-])c2ccccc2)C(=O)c2ccccc21.[Ti+4]`, the GI50 was 29.6 µM in the test with CAKI-1 renal; above 100 µM in the test with K-562 leukemia; 29 µM with SNB-19 CNS; above 100 µM with NCI-H226 lung; 42.9 µM in the test on NCI-H460 lung; above 100 µM with A549 NSCLC. The GI50 with HCT-15 colon was 52.9 µM. In addition, the TGI is above 100 µM in the test with CAKI-1 renal; above 100 µM in the test with K-562 leukemia; 93 µM in the test on SNB-19 CNS; above 100 µM in the test with NCI-H226 lung; above 100 µM in the test with NCI-H460 lung; above 100 µM with A549 NSCLC. The TGI with HCT-15 colon was above 100 µM.

`COc1ccc(C(C2=C(C)C(=O)c3ccccc3C2=O)c2ccc(C(C)C)cc(=O)c2O)cc1` (configuration not stated): the TGI in the test on CAKI-1 renal was 7.91 µM; in the test on K-562 leukemia, above 100 µM; with KM12 colon, above 100 µM; with NCI-H226 lung, 4.94 µM; in the test with NCI-H460 lung, 12.6 µM; in the test on A549 NSCLC, 13.4 µM. This compound yielded a TGI in the test on HCT-15 colon of 32.2 µM.

`CC(C)N(C(=O)C12C3C4C1C1C2C3C41C(O)C(C)(C)C)C(C)C` (configuration not stated): the TGI with CAKI-1 renal, in the test on K-562 leukemia, with SNB-19 CNS, in the test on A549 NSCLC and in the test with HCT-15 colon was above 50 µM each time.

For the compound `O=c1nc(-c2ccccc2)c2c3c(cccn13)CCC2`, the TGI in the test on CAKI-1 renal, in the test on K-562 leukemia, in the test with KM12 colon, with SNB-19 CNS, with NCI-H226 lung and in the test on NCI-H460 lung was above 100 µM each time. For the same compound, the TGI in the test on A549 NSCLC and in the test on HCT-15 colon was above 100 µM throughout.

Regarding `Cc1cc(C)c2c(c1)CN1CN2Cc2cc(C)cc(C)c21`, the TGI in the test with CAKI-1 renal was above 100 µM; in the test on K-562 leukemia, above 100 µM; in the test with KM12 colon, 37.1 µM; in the test on NCI-H226 lung, 61.5 µM; in the test on NCI-H460 lung it was 29.6 µM; in the test with A549 NSCLC, above 100 µM.

In the case of `Fc1cccc(Cl)c1C1SCc2nc3ccccc3n21` (configuration not stated), the TGI was above 100 µM with CAKI-1 renal; above 100 µM with K-562 leukemia; 59.5 µM in the test on KM12 colon; above 100 µM with SNB-19 CNS; above 100 µM with NCI-H226 lung; above 100 µM in the test with NCI-H460 lung. Moreover, the TGI with A549 NSCLC and with HCT-15 colon was above 100 µM each time.

With `Cc1cc(O)c2c(c1)C(O)(c1ccc3c(c1O)C(=O)c1c(O)cc(C)cc1C3(O)C1OC(CO)C(O)C(O)C1O)c1cccc(O)c1C2=O` (configuration not stated), the TGI was 31.7 µM in the test on CAKI-1 renal; 18.9 µM in the test with K-562 leukemia; 24 µM with KM12 colon; 30.2 µM in the test on SNB-19 CNS; 27.9 µM with NCI-H460 lung; 32.2 µM in the test on A549 NSCLC. This compound also yielded a TGI in the test with HCT-15 colon of 26.1 µM.

Turning to `Cc1nc2c(n1CC(C)(C)C)C(=O)c1ccccc1C2=O`, the TGI with K-562 leukemia, in the test with KM12 colon, with SNB-19 CNS, in the test with NCI-H226 lung, in the test with NCI-H460 lung and with A549 NSCLC was above 100 µM throughout. In the test with HCT-15 colon, this compound came in with a TGI above 100 µM.

As for `O=C1[C@@H](c2ccc(Cl)cc2)[C@H]2CC=C[C@H]2N1O`, the total growth inhibition concentration (TGI) in the test with CAKI-1 renal, with K-562 leukemia, in the test on KM12 colon, in the test with SNB-19 CNS, in the test with NCI-H226 lung and in the test on A549 NSCLC was above 100 µM each time. This compound also yielded a TGI in the test with HCT-15 colon above 100 µM.

As to `Cc1c(C)c2cc3c(=O)ccoc3c(C)c2oc1=O`, the TGI in the test on K-562 leukemia, in the test on KM12 colon, in the test on SNB-19 CNS, in the test with NCI-H226 lung, in the test with NCI-H460 lung and in the test on A549 NSCLC was above 100 µM each time. Moreover, the TGI in the test with HCT-15 colon is above 100 µM.

Turning to `CC(=O)N(CCN)CCN`, the TGI in the test with CAKI-1 renal, in the test with K-562 leukemia, with KM12 colon, in the test with SNB-19 CNS, with NCI-H460 lung and in the test on A549 NSCLC was above 10 µM in each case. In addition, the TGI in the test on HCT-15 colon is above 100 µM.

For the compound `O=C1c2ccccc2N2OC3(N4CCCC4)CCCC3C12c1ccccc1` (configuration not stated), the TGI with K-562 leukemia, with SNB-19 CNS, in the test with NCI-H226 lung, in the test with A549 NSCLC and with HCT-15 colon was above 100 µM throughout.

For the compound `Clc1ccc([O][In]([O]c2ccc(Cl)cn2)[O]c2ccc(Cl)cn2)nc1`, the GI50 in the test with CAKI-1 renal, with KM12 colon, in the test on SNB-19 CNS, in the test on NCI-H226 lung, in the test with NCI-H460 lung and in the test on A549 NSCLC was above 100 µM throughout. For the same compound, the GI50 in the test on HCT-15 colon was above 100 µM. In addition, the TGI in the test on CAKI-1 renal, with KM12 colon, in the test on SNB-19 CNS, in the test on NCI-H226 lung, in the test on NCI-H460 lung and in the test on A549 NSCLC was above 100 µM each time. This compound also registered a TGI in the test with HCT-15 colon above 100 µM.

For orientation: TGI means the concentration giving total growth inhibition. A higher TGI goes with less potent growth arrest. As a reminder, the GI50 is the concentration that inhibits growth by half.

(Values after PubChem BioAssay (NCI).)
